# Test results reported in US20060205642A1, “Oral methods of treatment using proANF peptides” (priority 2005, published 2006).
# “Also recorded” adds a separate entry of the source.
# What was measured:
# porcine aortas = experiment: Vasodilation of porcine aortic strips preconstricted with 0.3 micromolar phenylephrine
# Experimental: 30 Kg pigs are sacrificed, and aortic strips are harvested. The strips are attached to F-60 transducer (Narco-BioSystems, Houston, Tex.) and attached to a physiography (Narco-BioSystems) while being submerged in a muscle tissue bath comprising a Krebs Ringer solution at 37° C., with 95% O2-5% CO2, bubbled through the bath. Percentage vasodilation is measured versus time after preconstriction with 0.3 micromolar phenylephrine. […] (Vesely et al., Biochem. Biophys. Res. Commun. 148:1540-1548, 1987).
# [1] = tested on: renal medullary Na+-K+-ATPase; experiment: Inhibition of renal medullary Na+-K+-ATPase activity (FIG. 9); type: biochemical; settings: 10^-11 M, n=6, ANOVA
# Description: FIG. 9. Inhibition of renal medullary Na+-K+-ATPase activity by proANF 79-98 (kaliuretic peptide), proANF 1-30 (long acting natriuretic peptide), proANF 31-67 (vessel dilator), and angiotensin II at their […] concentrations.
# [2] = Ischemic nonoliguric acute renal failure (ARF) in rats; type: in vivo, Sprague-Dawley rats
# Experimental: Ischemic nonologuric acute renal failure (ARF) was induced in 24 male Sprague-Dawley rats (Zivc-Miller), weighing 200-270 g with 50 min of ischemia. Seven of the ARF rats received proANF 31-67. There were 17 ARF rats in the control group. Each of these rats were handled identically with the control rats as well as the experimental group of rats receiving an osmotic pump placement two days after receiving a unilateral right nephrectomy followed by clamping left renal artery for 50 min. The only difference was that the control group received 0.9% saline only in their osmotic pumps, whereas the experimental group had proANF 31-67 dissolved in 0.9% saline within their osmotic pumps which pump for 72 hours into the peritoneal cavity. In the 17 control ARF rats their preischemic blood urea nitrogen (BUN) and creatinine levels of 16±1 and 0.56±0.05 mg/dl increased to 162±4 and 8.17±0.5 mg/dl, P<0.001, respect 4 of postischemia. ProANF 31-67 (0.3 μg·kg^−1·min^−1 intraperitoneally), decreased the BUN and creatinine levels to 53±17 mg/dl and 0.98±0.12 mg/dl (P<0.001) in seven animals where ARF had been established for two days. […] Acute tubular necrosis was <5% in the proANF 31-67-treated rats compared with 25% to >75% in the placebo-treated ARF animals.
# [3] = tested on: particulate guanylate cyclase; experiment: Particulate guanylate cyclase activity in the kidney; type: biochemical; settings: 1 μM; whole kidney homogenates, renal cortical and medullary membranes, isolated distal nephrons
# Experimental: Testing is also carried out to determine biologic effects of these peptides by measuring their effects on particulate guanylate activity in the kidney.
# [4] = Infusion into healthy human subjects; type: in vivo; settings: healthy humans
# Experimental: Infusion of these peptides into healthy human subjects was performed as follows: Human pro-ANF 1-30, pro-ANF 31-67, and pro-ANF 79-98, and hANF (i.e., pro-ANF 99-126, were synthesized by Peninsula Laboratories (Belmont, Calif.). High pressure liquid chromatography (HPLC) analysis was performed on a sample of each of the four peptides to ensure purity. The peptides were dissolved in a sterile 0.9% saline solution to a concentration of 100 μg/ml and dispensed in 2 and 5 ml aliquots into sealed sterile vials. At the time of dispensing, randomly selected vials were tested for pyrogens and sterility. Prior to labeling the vials, the actual peptide content of the dispensed solution were determined by direct radioimmunoassay to account for any possible absorption of the respective peptides to the walls of the vials. All vials were then stored at −80° C. until thawed for individual study.
# Normal healthy subjects were chosen on the basis of age (between 20 and 50 years), physical examination and biochemical screenings. The subjects consumed their normal diets prior to testing. The subjects fasted overnight and were tested in the morning in the seated position. Intravenous catheters were placed bilaterally for the administration of pro-hANF 1-30, pro-hANF 31-67, pro-hANF 79-98 and hANF (pro-hANF 99-126) and for blood sampling. After completion of a 45-minute equilibration period, there were three […] phases of the study: baseline, experimental infusion (60 minutes) and recovery (3 hours). The baseline phase consisted of two 30 minute urine collection periods, the experimental phase consisted of three 20 minute urine and plasma collection periods, and the recovery phase consisted of two 30 minute urine and plasma collection periods each hour for three hours post-infusion. Urine output was replaced on a milliliter per milliliter basis throughout the study by administering oral water or orange juice. Urine samples were obtained by voiding at the designated collection periods.
# The 36 subjects were divided into 6 groups. One group (i.e., the control group) received a placebo infusion of 0.9% sodium chloride during the experimental infusion phase. […] The four remaining groups of six subjects each received human pro-hANF 1-30, pro-hANF 31-67, pro-hANF 79-98 and HANF. The four groups received the peptides by continuous infusion at the rate of 0.1 μg/kg per minute. The volume administered per hour during the experimental infusion phase was 10 ml for all four peptides and the placebo. All infusions were given by a constant-rate infusion pump, with the final concentrations of prohANFs adjusted for the subjects' body weight. The subjects heart rate and cuff blood pressure were taken at 5 minute intervals throughout the study. The excreted urine was analyzed for sodium concentration.
# [5] = tested on: particulate guanylate cyclase; experiment: Cyclic GMP / particulate guanylate cyclase activation in cultured smooth muscle cells and porcine aorta; type: cell-based
# [6] = Rat clearance model (diuresis and salt excretion); type: in vivo, Munich-Wistar rats; settings: for FENa, fractional excretion of sodium / UNa, urinary sodium / UNaV, urinary sodium excretion rate / V, urine flow rate: means ± SE
# Experimental: The same three peptides and ANF from Example I are tested using the rat clearance model. Six control rats and six experimental Munich-Wistar rats, each weighing 150-200 grams, are used for each peptide, with catheters being placed in both jugular veins and in the femoral artery. The ureters are cannulated for simultaneous urine collections with femoral artery blood collections.
# After inserting the catheters, a stabilization of one hour is allowed. A 10 μg/kg bolus of each of the respective human sequences of the peptides is given via the jugular vein to six experimental rats followed by a sustaining infusion of 0.1 μg/kg/min for 60 minutes. Blood and urine samples are collected at 20 minute intervals during this 60 minute infusion. In both the control and experimental animals, hematocrits and plasma sodium values remained at the same levels pre- and post-infusion while blood pressure decreased with each of these peptides (see Attachment B).
# [7] = A, control period (before peptide)
# [8] = B, first 60-minute experiment period, 10 μg/kg bolus then 0.1 μg/kg/min
# [9] = C, second 60-minute experimental period
substance,measurement,setting,value
H-EVVPPQVLSEPNEEAGAALSPLPEVPPWTGEVSPAQR-OH [proANF 31-67],increase in cyclic GMP levels over baseline levels associated with vasodilation,porcine aortas,four-to-five fold
same,inhibition of renal medullary Na+-K+-ATPase activity,[1],significant at P<0.01
same,creatinine level,"[2]; 0.3 μg·kg^−1·min^−1 intraperitoneally, seven animals, ARF established two days, control ARF rats 8.17±0.5 at day 4",0.98 ± 0.12 mg/dL
same,blood urea nitrogen (BUN) level,"[2]; 0.3 μg·kg^−1·min^−1 intraperitoneally, seven animals, ARF established two days, control ARF rats 162±4 at day 4",53 ± 17 mg/dL
same,acute tubular necrosis,[2]; 25% to >75% in placebo-treated animals,< 5%
same,mortality at day 6 of ARF,[2]; 88% without proANF 31-67,14%
same,left ventricular dilation (transthoracic echocardiography),[2]; ARF rats,reversed this dilation
same,water excretion,[2]; doubled with ARF,further augmented
same,survival (Kaplan-Meir plot),[2]; from day 4 (P<0.01) and day 5 onward (P<0.001) vs placebo-treated ARF rats,significant advantage with respect to survival
same,particulate guanylate cyclase activity,[3],enhance
same,duration of sodium excreting effects compared to ANF,[4],significantly (P<0.001) prolonged compared to ANF; also recorded: last significantly (P<0.001) longer than ANF's effects
same,increase in urine volume (in words),"[4]; 100 ng/kg body wt per minute for 1 hour i.v., n=6, ANOVA",significant
same,sodium excretion (in words),"[4]; 100 ng/kg body wt per minute for 60 minutes, vs baseline",significantly (P<0.05) increased
same,systolic and diastolic blood pressures,"[4]; 100 ng/kg body wt per minute i.v. for 60 min, n=6",significant; also recorded: lowers blood pressure the most
same,cyclic GMP levels in cultured smooth muscle cells,[5]; cultured smooth muscle cells,increase cyclic GMP levels
same,concentration of maximal activation of guanylate cyclase activity,[5]; porcine aorta and isolated smooth muscle cells,about 1 μM
same,EC50,"[5]; porcine aorta and isolated smooth muscle cells, read-out: half maximal activation (ED5o) of guanylate cyclase",~0.01 µM
same,"FENa, fractional excretion of sodium",[6]; [7],0.057 ± 0.012%
same,"UNa, urinary sodium",[6]; [7],21.02 ± 4.41 meq/1
same,"UNaV, urinary sodium excretion rate",[6]; [7],144.08 ± 56.75 μeq · min^−1 · g kidney wt^−1
same,"V, urine flow rate",[6]; [7],2.63 ± 0.24 μl · min^−1 · g kidney wt^−1
same,"V, urine flow rate","[6]; B, first 60-minute experiment period, 10 μg/kg bolus then 0.1 μg/kg/min via jugular vein",9.36 ± 3.14 μl · min^−1 · g kidney wt^−1
same,"FENa, fractional excretion of sodium",[6]; [8],0.457 ± 0.156%
same,"UNa, urinary sodium",[6]; [8],111.73 ± 21.37 meq/1
same,"UNaV, urinary sodium excretion rate",[6]; [8],"1,057 ± 371.69 μeq · min^−1 · g kidney wt^−1"
same,"V, urine flow rate","[6]; C, second 60-minute experimental period, 10 μg/kg bolus then 0.1 μg/kg/min",8.84 ± 1.86 μl · min^−1 · g kidney wt^−1
same,"FENa, fractional excretion of sodium",[6]; [9],0.444 ± 0.155%
same,"UNa, urinary sodium",[6]; [9],129.33 ± 24.73 meq/1
same,"UNaV, urinary sodium excretion rate",[6]; [9],"1,077.63 ± 306.10 μeq · min^−1 · g kidney wt^−1"
same,potassium excretion,[6]; rat clearance model,does not cause increased potassium excretion
